One test addresses Carbonic anhydrase 9 (Homo sapiens, UniProt Q16790). In words: Inhibition of recombinant human carbonic anhydrase 9 after 15 mins by stopped flow CO2 hydration assay.
In a further test the target is Carbonic anhydrase 2 (Homo sapiens, UniProt P00918). In words: Inhibition of recombinant human carbonic anhydrase 2 after 15 mins by stopped flow CO2 hydration assay.
A further test deals with Carbonic anhydrase 12 (Homo sapiens, UniProt O43570). In words: Inhibition of recombinant human carbonic anhydrase 12 after 15 mins by stopped flow CO2 hydration assay.
A further test has as its target Carbonic anhydrase 1 (Homo sapiens, UniProt P00915). In words: Inhibition of recombinant human carbonic anhydrase 1 after 15 mins by stopped flow CO2 hydration assay.

Sequence of Carbonic anhydrase 1 (P00915 whole entry): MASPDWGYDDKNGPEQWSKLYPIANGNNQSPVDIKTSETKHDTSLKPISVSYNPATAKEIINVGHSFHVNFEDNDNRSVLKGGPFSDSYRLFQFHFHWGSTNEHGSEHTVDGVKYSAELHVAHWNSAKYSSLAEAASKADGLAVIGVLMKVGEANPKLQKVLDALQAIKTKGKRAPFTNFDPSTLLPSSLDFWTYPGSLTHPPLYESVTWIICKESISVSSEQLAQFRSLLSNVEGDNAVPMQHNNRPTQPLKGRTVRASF
Sequence of Carbonic anhydrase 12 (O43570 whole entry): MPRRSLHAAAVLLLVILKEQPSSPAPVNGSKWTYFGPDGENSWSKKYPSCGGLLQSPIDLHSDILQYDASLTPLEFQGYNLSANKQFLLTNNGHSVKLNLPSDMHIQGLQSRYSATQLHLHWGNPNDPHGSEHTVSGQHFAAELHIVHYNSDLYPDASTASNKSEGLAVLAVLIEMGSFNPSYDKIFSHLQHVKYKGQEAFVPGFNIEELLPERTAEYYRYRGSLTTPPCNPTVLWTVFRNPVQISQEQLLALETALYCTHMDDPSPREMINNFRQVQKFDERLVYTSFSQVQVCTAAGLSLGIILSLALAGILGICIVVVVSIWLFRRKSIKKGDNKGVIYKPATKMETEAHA

In the case of `CCCN(CCC)S(=O)(=O)c1ccc(C(=O)NC)cc1`, the Ki at Carbonic anhydrase 9 is 165 nM; at Carbonic anhydrase 2, greater than 10000 nM.

On to `CCCN(CCC)S(=O)(=O)c1ccc(C(=O)NC2CCCCC2)cc1`, for which the Ki is 234 nM on Carbonic anhydrase 9 and greater than 10000 nM at Carbonic anhydrase 2.

Consider `CCCN(CCC)S(=O)(=O)c1ccc(C(=O)NC2CCCCC2C)cc1` (configuration not stated), for which the Ki at Carbonic anhydrase 9 is 260 nM; at Carbonic anhydrase 2 it was greater than 10000 nM.

As for `CCCN(CCC)S(=O)(=O)c1ccc(C(=O)NCCN2CCOCC2)cc1`, the Ki is 251 nM on Carbonic anhydrase 9 and greater than 10000 nM at Carbonic anhydrase 2.

On to `CCCN(CCC)S(=O)(=O)c1ccc(C(=O)Nc2ccccc2)cc1`, for which the results for the Ki at Carbonic anhydrase 9 and on Carbonic anhydrase 2 were 171 nM and greater than 10000 nM, respectively.

For `CCCN(CCC)S(=O)(=O)c1ccc(C(=O)Nc2ccccn2)cc1`, the Ki at Carbonic anhydrase 9 was 228 nM; on Carbonic anhydrase 2, greater than 10000 nM.

As for `CCCN(CCC)S(=O)(=O)c1ccc(C(=O)Nc2nncs2)cc1`, the figures for the Ki at Carbonic anhydrase 9 and at Carbonic anhydrase 2 were 216 nM and greater than 10000 nM, respectively.

For `CCCN(CCC)S(=O)(=O)c1ccc(C(=O)Nc2cccc(Cl)c2)cc1`, the Ki is 198 nM at Carbonic anhydrase 9 and greater than 10000 nM at Carbonic anhydrase 2.

For `CCCN(CCC)S(=O)(=O)c1ccc(C(=O)Nc2ccc(Cl)cc2)cc1`, the Ki at Carbonic anhydrase 9 was 243 nM; at Carbonic anhydrase 2, greater than 10000 nM.

As to `CCCN(CCC)S(=O)(=O)c1ccc(C(=O)Nc2cccc([N+](=O)[O-])c2)cc1`, the figures for the Ki at Carbonic anhydrase 9 and on Carbonic anhydrase 2 were 265 nM and greater than 10000 nM, respectively.

As for `CCCN(CCC)S(=O)(=O)c1ccc(C(=O)Nc2ccccc2[N+](=O)[O-])cc1`, the Ki on Carbonic anhydrase 2 is greater than 10000 nM.

Turning to `CCCN(CCC)S(=O)(=O)c1ccc(C(=O)Nc2ccccc2N)cc1`, the Ki at Carbonic anhydrase 9 is 223 nM; on Carbonic anhydrase 2 it was greater than 10000 nM.

Take `CCCN(CCC)S(=O)(=O)c1ccc(C(=O)O)cc1` [PROBENECID]: the Ki on Carbonic anhydrase 12 is 1240 nM; on Carbonic anhydrase 9 it was 360 nM; on Carbonic anhydrase 2 it was 431 nM; at Carbonic anhydrase 1 it was greater than 10000 nM.

Source of the values: ChEMBL document CHEMBL3352763, “Selective inhibition of human carbonic anhydrases by novel amide derivatives of probenecid: synthesis, biological evaluation and molecular modelling studies” (Bioorg Med Chem, 2014).
